# From patent EP0302626A2, “Insecticidal compounds” (IMPERIAL CHEMICAL INDUSTRIES PLC, priority 1987, dated 1989)
# Several values for one entry are separate records, joined by “and”; a condition that tells them apart may be missing. Equal entries are not always repeated. Where two headings read alike, the source gives them in different places.
# How the values were obtained:
# Format in all cases: in vivo
# [1] = system: Tetranychus urticae (spider mites - adult); assay: insecticidal mortality test, contact, French bean leaf; details: for mortality at 100 ppm: read-out: grading of mortality, Tua, 100 ppm, 3 days
# Experimental: (§1) The activity of the Product was determined using a variety of insect pests. The Product was used in the form of liquid preparations containing 500, 250 or 100 parts per million (ppm) by weight of the Product. The preparations were made by dissolving the Product in acetone and diluting the solutions with water containing 0.01% by weight of a wetting agent sold under the trade name "LlSSAPOL" NX until the liquid preparations contained the required concentration of the Product. "Lissapol" is a Registered Trade Mark.
# (§2) The test procedure adopted with regard to each pest was basically the same and comprised supporting a number of the pests on a medium which was usually a host plant or a foodstuff on which the pests feed, and treating either or both the pests and the medium with the preparations. The mortality of the pests was then assessed at periods usually varying from one to three days after the treatment.
# (§3) The results of the tests are given in Table III for each of the Products, at the rate in parts per million given in the second column as a grading of mortality designated as A, B or C wherein A indicates 80-100% mortality, B indicates 50-79% mortality and C indicates less than 50% mortality.
# (§4) In Table 111 the pest organism used is designated by a letter code and the pests species, the support medium or food, and the type and duration of test is given in Table II.
# [2] = system: Myzus persicae (aphids); assay: insecticidal mortality test, contact, Chinese Cabbage leaf; details: 72 h, read-out: grading of mortality, MP
# Experimental: as §1, §2, §3, §4
# [3] = system: Nilaparvata lugens; assay: insecticidal mortality test, Nephotettix cincticeps replaced by Nilaparvata lugens; details: 72 h, read-out: grading of mortality, NC with Nilaparvata lugens
# Experimental: as §1, §2, §3, §4
# [4] = system: Heliothis virescens (tobacco budworm - larvae); assay: insecticidal mortality test, residual, cotton leaf; details: read-out: grading of mortality, HV
# Experimental: as §1, §2, §3, §4
# [5] = system: Spodoptera exigua (lesser army worm - larvae); assay: insecticidal mortality test, residual, cotton leaf; details: read-out: grading of mortality, SP
# Experimental: as §1, §2, §3, §4
# [6] = system: Diabrotica balteata (rootworm larvae); assay: insecticidal mortality test, residual, filter paper/maize seed; details: read-out: grading of mortality, DB
# Experimental: as §1, §2, §3, §4
# [7] = system: Blattella germanica (cockroach nymphs); assay: insecticidal mortality test, residual, plastic pot; details: 72 h, read-out: grading of mortality, BG
# Experimental: as §1, §2, §3, §4
# [8] = system: Musca domestica (houseflies - adults); assay: insecticidal mortality test, contact, cotton wool/sugar; details: read-out: grading of mortality, MD
# Experimental: as §1, §2, §3, §4
# [9] = system: Blattella germanica (adult males); assay: Blattella germanica knockdown test; details: tests 1 and 2 are repeats; for % KNOCKDOWN OBSERVED 15 min / % KNOCKDOWN OBSERVED 20 min / pest or weed control at 250 ppm: 250 ppm in kerosene, 1 cm3 sprayed onto 10 adult males; for pest or weed control at 250 ppm / mortality at 250 ppm: Blattella germanica; for pest or weed control at 250 ppm: topical, 10 min, Tetramethrin: mean of 27 observations, read-out: % KNOCKDOWN OBSERVED 10 min; for mortality at 250 ppm: 48 h, 250 ppm spray, insects held at 25°C and 65% relative humidity for 48 hours, read-out: % MORTALITY 48 hrs
# Experimental: The test compound was dissolved in acetone (2 cm³) and the solution diluted to a concentration of 250 ppm with kerosene. 1 cm³ Of this preparation was sprayed onto 10 Blattella germanica (adult males) held in a netted plastic pot in a Burkhard potter Tower. Assessment of knockdown was performed at intervals of 5 minutes up to a total of 20 minutes. On removal from the Burkhard Potter Tower, the insects were held at 25°C and 65% relative humidity for 48 hours, and an assessment of mortality performed. Each test was repeated.
# In some tests, additional knockdown assessment was performed at intervals of 1, 2, 3 and 4 minutes, and KT₅₀ and KT₉₀ values determined (the time taken, in minutes, to knockdown 50% and 90% respectively of test insects).
# [10] = system: Musca domestica (adult females); assay: Musca domestica knockdown test; details: 1 cm3 of 30 ppm solution in acetone, Kearns and March chamber, 20 adult females, observed over 10 minutes; average of 2 replicates (* single replicate, ** average of 7 tests)
# Experimental: 1 cm³ Of a 30 ppm solution of the test chemical in acetone was sprayed into a Kearns and March chamber containing 20 Musca domestica (adult females). Knockdown was observed over a period of 10 minutes and KT₅₀ and KT₉₀ values (the time taken for 50% and 90% of the insects to be knocked down) were calculated from the observations. The results given in Table V represent average KT values of 2 replicates except where otherwise stated.
# [11] = system: Nephotettix cincticeps (green leaf hopper - nymphs); assay: insecticidal mortality test, contact, rice plant; details: 100 ppm, contact, rice plant, read-out: grading of mortality, NC
# Experimental: as §1, §2, §3, §4
# [12] = Nilaparvata lugens, in Oryza sativa
# [13] = 72 h, 100 ppm, residual, cotton leaf, 3 days
SMILES,"mortality at 100 ppm ([1]; Tetranychus urticae, 72 h)",mortality at 100 ppm [2],"mortality at 100 ppm [3, 12]","mortality at 100 ppm [4, 13]",mortality at 100 ppm ([5]; 72 h),mortality at 100 ppm ([6]; 72 h),mortality at 100 ppm [7],mortality at 100 ppm ([8]; 24 h),% KNOCKDOWN OBSERVED 15 min [9],pest or weed control at 250 ppm [9],KT₅₀ [10],KT₉₀ [10],mortality at 250 ppm [9],"mortality at 100 ppm ([11]; 72 h, 3 days)",other results
"CC1(C)C(C=C(Cl)C(F)(F)F)C1C(=O)OCc1c(F)c(F)c(CF)c(F)c1F (racemic) [Product II, 4-(Fluoromethyl)-2,3,5,6-tetrafluorobenzyl (1RS,cis)-3-(Z-2-chloro-3,3,3-trifluoroprop-1-en-1-yl)-2,2-dimethyl-cyclopropanecarboxylate]",< 50%,80 to 100%,80 to 100%,80 to 100%,80 to 100%,80 to 100%,80 to 100%,80 to 100%,90% and 100%,60%,2.7 min,5.0 min,–,–,% KNOCKDOWN OBSERVED 20 min [9]: 90%
"CC1(C)C(C=C(Cl)C(F)(F)F)C1C(=O)OCc1c(F)c(F)c(COC=O)c(F)c1F (racemic) [Product IX, 4-(Formyloxymethyl)-2,3,5,6-tetrafluoromethyl (1RS, trans)-3-(Z-2-chloro-3,3,3-trifluoroprop-1-en-1-yl)-2,2-dimethylcyclopropanecarboxylate]",–,80 to 100%,–,–,–,–,80 to 100%,–,–,100%,10* mins,10* mins,100%,–,"grading of mortality, Tua ([1]; 100 ppm, 3 days, listed as IX, 4320 min): C (C indicates less than 50% mortality); mortality at 100 ppm ([11]; 48 h, test duration of 2 days (footnote +)): 80 to 100%; mortality at 100 ppm ([4]; 48 h, 100 ppm, residual, cotton leaf, test duration of 2 days (footnote +)): 80 to 100%; mortality at 100 ppm ([5]; 48 h): 80 to 100%; mortality at 100 ppm ([6]; 48 h): < 50%; mortality at 100 ppm ([8]; 72 h): < 50%"
"CC(=O)OCc1c(F)c(F)c(COC(=O)C2C(C=C(Cl)C(F)(F)F)C2(C)C)c(F)c1F (racemic) [Product VI, 4-(Acetoxymethyl)-2,3,5,6-tetrafluorobenzyl (1RS,cis)-3-(Z-2-chloro-3,3,3-trifluoroprop-1-en-1-yl)-2,2-dimethylcyclopropanecarboxylate]",50 to 79%,80 to 100%,–,80 to 100%,80 to 100%,80 to 100%,80 to 100%,80 to 100%,70%,30%,7.0 min,7.7* mins,100%,80 to 100%,% KNOCKDOWN OBSERVED 20 min [9]: 100%
"CC1(C)C(C=C(Cl)C(F)(F)F)C1C(=O)OCc1c(F)c(F)c(CN=[N+]=[N-])c(F)c1F (racemic) [Product X, 4-(Azidomethyl)-2,3,5,6-tetrafluorobenzyl (1RS, cis)-3-(Z-2-chloro-3,3,3-trifluoroprop-1-en-1-yl)-2,2-dimethylcyclopropanecarboxylate]",80 to 100%,80 to 100%,–,80 to 100%,80 to 100%,80 to 100%,80 to 100%,80 to 100%,100%,70%,5.0* mins,9.0* mins,100%,80 to 100%,–
"CC1(C)C(C=C(Cl)C(F)(F)F)C1C(=O)OCc1c(F)c(F)c(CC#N)c(F)c1F (racemic) [Product XII, 4-(Cyanomethyl)-2,3,5,6-tetrafluorobenzyl (1RS, cis)-3-(Z-2-chloro-3,3,3-trifluoroprop-1-en-1-yl)-2,2-dimethylcyclopropanecarboxylate]",80 to 100%,< 50%,–,80 to 100%,80 to 100%,80 to 100%,80 to 100%,80 to 100%,–,100%,6.8 min,9.8 min,100%,80 to 100%,–
"C#Cc1c(F)c(F)c(COC(=O)C2C(C=C(Cl)C(F)(F)F)C2(C)C)c(F)c1F (racemic) [Product XVI, 4-Ethynyl-2,3,5,6-tetrafluorobenzyl (1RS, cis)-3-(Z-2-chloro-3,3,3-trifluoroprop-1-en-1-yl)-2,2-dimethylcyclopropanecarboxylate]",50 to 79%,80 to 100%,80 to 100%,80 to 100%,80 to 100%,80 to 100%,80 to 100%,80 to 100%,–,100%,4.6* mins,7.0* mins,100%,–,–
"CC(C)=NNc1c(F)c(F)c(COC(=O)[C@@H]2[C@H](/C=C(\Cl)C(F)(F)F)C2(C)C)c(F)c1F (relative stereo) [Product XIII, 4-(prop-2-ylidenehydrazino)-2,3,5,6-tetrafluorobenzyl (1RS, cis)-3-(Z-2-chloro-3,3,3-trifluoroprop-1-en-1-yl)-2,2-dimethylcyclopropanecarboxylate]",< 50%,50 to 79%,80 to 100%,–,–,80 to 100%,80 to 100%,80 to 100%,–,–,–,–,–,–,mortality at 100 ppm ([4]; 72 h): 80 to 100%
"CC(C)=NNc1c(F)c(F)c(COC(=O)[C@@H]2[C@H](C=C(Cl)Cl)C2(C)C)c(F)c1F (relative stereo) [Product XV, 4-(prop-2-ylidenehydrazino)-2,3,5,6-tetrafluorobenzyl (1RS, cis)-3-(2,2-dichloroethenyl)-2,2-dimethyl-cyclopropanecarboxylate]",–,–,–,–,–,–,–,–,–,–,–,–,–,–,"mortality at 500 ppm [2]: 80 to 100%; mortality at 500 ppm [3, 12]: 80 to 100%; mortality at 500 ppm ([4]; 72 h): 80 to 100%; mortality at 500 ppm ([6]; 72 h): 80 to 100%; mortality at 500 ppm [7]: 80 to 100%; mortality at 500 ppm ([8]; 24 h): 80 to 100%"
"C#Cc1c(F)c(F)c(COC(=O)C2C(C)(C)C2(C)C)c(F)c1F [Product XVII, 4-Ethynyl-2,3,5,6-tetrafluorobenzyl-2,2,3,3-tetramethylcyclopropanecarboxylate]",–,–,–,–,–,–,–,–,–,–,4.1 min,7.5 min,–,–,"mortality at 500 ppm ([1]; Tetranychus urticae, 72 h, 500 ppm, 3 days, read-out: grading of mortality, Tua): 80 to 100%; mortality at 500 ppm ([2]; 500 ppm, contact, Chinese Cabbage leaf, 3 days): < 50%; mortality at 500 ppm ([3]; 500 ppm, footnote *: Nephotettix cincticeps replaced by Nilaparvata lugens, otherwise as NC test (contact, rice plant, 3 days)): 80 to 100%; mortality at 500 ppm ([4]; 72 h): 80 to 100%; mortality at 500 ppm ([5]; 72 h, 500 ppm, residual, cotton leaf, 3 days): 80 to 100%; mortality at 500 ppm ([6]; 72 h, 500 ppm, residual, filter paper/maize seed, 3 days): < 50%; mortality at 500 ppm ([7]; 500 ppm, residual, plastic pot, 3 days): 80 to 100%; mortality at 500 ppm ([8]; 24 h, 500 ppm, contact, cotton wool/sugar, 1 day): 80 to 100%"
